Source: patent US20030134420A1, “Methods and compositions for gene delivery” (priority 2000, published 2003)

Legend:
[1] = test system: pCMVLuc luciferase expression per gram of liver; test: Luciferase expression in liver after tail vein injection of pCMVLuc polyplexes/formulants; conditions: mice; for Luciferase Average [pg./g liver]: 15 μg of DNA per injection
[2] = Biodistribution and clearance of 125I-pCMVβGal; assay type: in vivo; conditions: mice
Experimental: The biodistribution of ^125I-pCMV βGal was also studied in mice. Mice were injected with a dose of 300 μL containing 50 μg/mL of DNA. The distribution of free DNA, free DNA and TCDC, encapsulated in a polyplex comprised of block copolymer (PEG5k-b-(Cys-S—C18)10-b-(Lys)45) and the polyplex with TCDC were tested after 5 (FIG. 17A) and 60 (FIG. 17B) minutes. […] The clearance of ^125I-pCMVβGal was also studied using the ABC Polymer, (PEG5k-b-(Cys-S—C18)10-b-(Lys)45) (BP-A).

C[C@H](CCC(=O)N(CCCNC(=O)[C@H](O)[C@@H](O)[C@H](O)[C@H](O)CO)CCCNC(=O)[C@H](O)[C@@H](O)[C@H](O)[C@H](O)CO)[C@H]1CC[C@H]2[C@@H]3CC[C@@H]4C[C@H](O)CC[C@]4(C)[C@H]3C[C@H](O)[C@]12C [Deoxy BIGCHAP]
Luciferase Average [pg./g liver] ([1]; formulant dose 0.50%): 129 pg./g liver

C[C@H](CCC(=O)NCCC[N+](C)(C)CCCS(=O)(=O)[O-])[C@H]1CC[C@H]2[C@@H]3[C@H](O)C[C@@H]4C[C@H](O)CC[C@]4(C)[C@H]3C[C@H](O)[C@]12C.O [CHAPS, 3-[(3-Cholamidopropyl)dimethylammonio]1-propanesulfonate hydrate]
Luciferase Average [pg./g liver] ([1]; formulant dose 0.50%): 178 pg./g liver

C[C@H](CCC(=O)NCCS(=O)(=O)[O-])[C@H]1CC[C@H]2[C@@H]3[C@@H](O)C[C@@H]4C[C@H](O)CC[C@]4(C)[C@H]3CC[C@]12C.[Na+] [TCDC]
biodistribution of 125I-pCMVβGal (FIG. 17) ([2]; 300 μL dose, 50 μg/mL DNA, BP-A polyplex with TCDC, 5 and 60 minutes): redirects the polyplex from the lungs and other organs to the blood | clearance / half-life of 125I-pCMVβGal DNA ([2]; ABC Polymer (BP-A) polyplex, administration of TCDC): greatly enhanced the half-life of the DNA | Luciferase Average [pg./g liver] ([1]; formulant dose 0.50%): 517 pg./g liver

C[C@H](CCC(=O)NCCC[N+](C)(C)CC(O)CS(=O)(=O)[O-])[C@H]1CC[C@H]2[C@@H]3[C@H](O)C[C@@H]4C[C@H](O)CC[C@]4(C)[C@H]3C[C@H](O)[C@]12C (stereo partly drawn) [CHAPSO]
Luciferase Average [pg./g liver] ([1]; formulant dose 0.50%): 188 pg./g liver

CCCCCCC(=O)OC[C@H](COP(=O)([O-])OCC[N+](C)(C)C)OC(=O)CCCCCC [DHPC]
Luciferase Average [pg./g liver] ([1]; formulant dose 0.40%): 470 pg./g liver | effect of addition of formulant on luciferase expression (FIG. 15) ([1]; 200 μL dose, 15 μg/mL pCMVLuc, Trigal copolymer polyplexes): greatly enhances the expression of luciferase

C[C@H](CCC(=O)NCCCOCCOCCOCCCN)[C@H]1CC[C@H]2C3[C@H](O)C[C@@H]4C[C@H](O)CCC4(C)[C@H]3C[C@H](O)[C@]12C (stereo partly drawn)
Luciferase Average [pg./g liver] ([1]; formulant dose 0.10%): 3964 pg./g liver
